# Results taken from patent publication US10654834B2 (Venenum Biodesign, LLC, priority 2016, dated 2020).
# Experiments:
# mouse TGR5 receptor [1] = target: T1, mouse TGR5 receptor (Mus musculus, UniProt Q80SS6); assay: Mouse TGR5 luminescent cAMP production assay (HEK293-EBNA cells, DiscoveRx cAMP XS+ kit); type: cell-based; conditions: HEK293-EBNA cells overexpressing mouse TGR5, luminescent cAMP assay; read-out: Mouse TGR5 Lum. cAMP Activity (EC50)
# T1 construct: host or cells: HEK293-EBNA (293 c18, ATCC CRL10852)
# T1 sequence (Q80SS6 1-329): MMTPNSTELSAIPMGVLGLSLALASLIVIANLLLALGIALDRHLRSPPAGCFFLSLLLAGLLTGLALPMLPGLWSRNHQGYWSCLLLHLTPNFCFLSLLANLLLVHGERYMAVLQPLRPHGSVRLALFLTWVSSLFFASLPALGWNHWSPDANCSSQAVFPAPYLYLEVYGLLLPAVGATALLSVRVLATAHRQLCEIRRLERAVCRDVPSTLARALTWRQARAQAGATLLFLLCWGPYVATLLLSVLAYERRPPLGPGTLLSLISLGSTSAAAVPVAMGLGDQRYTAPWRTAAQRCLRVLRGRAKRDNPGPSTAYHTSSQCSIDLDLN
# In short: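 HEK293-EBNA cells stably expressing mouse TGR5, resuspended in serum-free DMEM with 500 μM IBMX, were premixed 20 min with cAMP antibody, then exposed to half-log compound dilutions for 1 h at room temperature. cAMP was read by luminescent enzyme-fragment complementation (cAMP XS+) after overnight incubation; EC50 derived.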
# Mouse STC-1 cells = assay: STC-1 GLP-1 assay (GLP-1 secretion); type: cell-based; conditions: Mouse STC-1 cells, GLP-1 secretion, 2 h; read-out: Mouse STC-1 HTRF GLP-1 Activity (EC50)
# Procedure: Compounds of the present invention were evaluated for their ability to induce GLP-1 production in mouse intestinal neuroendocrine tumor cells.
# Mouse STC-1 cells were cultured and maintained in high glucose DMEM (Sigma #5796) supplemented with 15% horse serum, 5% Fetal Bovine Serum (FBS), 1%° penicillin/streptomycin, and 2 mM L-alanine L-glutamine (GlutaMax). Two days prior to analysis of GLP-1 secretion cells were harvested using Accutase (Sigma), spun down then resuspended in high glucose DMEM media containing 2 mM L-alanine L-glutamine (GlutaMax), 10% charcoal-dextran stripped FBS, and 50 μg/mL Gentamicin, at a density of 100,000° cells/mL. 100 μL of cell suspension was added to each well of a 96-well Poly-D-Lysine coated culture plate (Sigma; cat #2382493) and was incubated at 37° C. with 5% CO2.
# Compounds were initially diluted in 100% DMSO (12-point serial dilution by half logs) in a 96-well plate and then were further diluted 1:500 in Hanks' Balanced Salt Solution (HBSS) containing protease inhibitor cocktail, DPP-IV inhibitor, and 0.1% fatty acid free bovine serum albumin. On the day of the experiment cells were washed once with HBSS. After wash, 100 μL of test compound was added to each well. The plate was incubated at 37° C. with 5% CO2 for 2° h. Supernatants were collected and GLP-1 secretion was measured using the Cisbio™ Active GLP-1 HTRF Assay Kit (CisBio). Briefly, Anti-GLP-1-d2 conjugate and Anti-GLP-1 Terbium Cryptate conjugate stock solutions were prepared as per kit instructions. The two solutions were pre-mixed and 10 μL were transferred to a 384-well low volume plate (Greiner; cat #784075). 10 μL of collected supernatants were added to wells already containing the conjugate solution. The plate was covered and incubated at room temperature overnight. The plate was read on an Envision™ plate reader (PerkinElmer).
# In Table 53, EC50 values were obtained from the STC-1 GLP-1 production assay for compounds of the present invention are summarized.
# human TGR5 receptor = target: T2, human TGR5 receptor (Homo sapiens, UniProt Q8TDU6); assay: Human TGR5 cAMP production assay (hTGR5-CHO cells, DiscoveRx cAMP XS+ kit); type: cell-based; conditions: luminescent cAMP assay, read-out: Human TGR5 Lum. cAMP Activity (EC50)
# T2 construct: host or cells: CHO-K1 (hTGR5-CHO)
# T2 sequence (Q8TDU6 1-330): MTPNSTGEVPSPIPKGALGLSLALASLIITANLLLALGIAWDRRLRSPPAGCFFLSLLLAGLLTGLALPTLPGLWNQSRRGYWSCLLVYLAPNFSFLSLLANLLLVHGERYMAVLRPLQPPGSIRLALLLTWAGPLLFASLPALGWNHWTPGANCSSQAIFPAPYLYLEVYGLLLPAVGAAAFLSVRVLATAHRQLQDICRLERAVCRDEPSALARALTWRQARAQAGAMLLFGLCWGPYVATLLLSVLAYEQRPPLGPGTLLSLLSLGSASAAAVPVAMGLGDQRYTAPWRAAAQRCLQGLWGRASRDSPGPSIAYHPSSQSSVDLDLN
# In short: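 CHO-K1 cells stably expressing hTGR5, in PBS with IBMX and cAMP antibody, treated with half-log compound dilutions for 1 h at room temperature. cAMP measured by enzyme-fragment complementation luminescence after overnight detection; EC50 values reported.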
# [2] = Pharmacokinetic profile in mice after oral gavage; type: in vivo, mouse; conditions: mouse; fasted male Hilltop mice, 10 mg/kg oral gavage, plasma; read-out: Cmax
# In short: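 Fasted 8-week male Hilltop mice given 10 mg/kg orally in 20% PEG400/80% 0.5% CMC + 0.25% Tween-80. EDTA plasma sampled 0-4 h, measured by LC-MS/MS (MRM, positive ion); Cmax and AUC derived non-compartmentally, values being means of three mice.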
# mouse TGR5 receptor [3] = target: T1, mouse TGR5 receptor; assay: Mouse TGR5 HTRF cAMP production assay (HEK293-EBNA cells, Cisbio cAMP HiRange kit); type: cell-based; conditions: HEK293-EBNA cells overexpressing mouse TGR5, HTRF cAMP assay
# In short: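 HEK293-EBNA cells stably expressing mouse TGR5 (episomal vector) were suspended in serum-free DMEM with 500 μM IBMX and exposed to 12-point half-log compound dilutions for 1 h at room temperature. cAMP was detected by HTRF (d2-cAMP/anti-cAMP cryptate, 1 h, room temperature), giving EC50 from duplicates.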
EC50 (mouse TGR5 receptor [1]),EC50 (Mouse STC-1 cells),EC50 (human TGR5 receptor),Cmax [2],EC50 (mouse TGR5 receptor [3]),SMILES
< 100 nM,100 to 999 nM,< 100 nM,–,–,"N#Cc1ccc(CCNC(=O)[C@@H]2CCCN(c3cc(N4CCC(CCO)CC4)nc(C(F)(F)F)n3)C2)cc1 [Compound 309, (R)-N-(4-cyanophenethyl)-1-(6-(4-(2-hydroxyethyl)piperidin-1-yl)-2-(trifluoromethyl)pyrimidin-4-yl)piperidine-3-carboxamide]"
100 to 999 nM,–,100 to 999 nM,54 ng/mL,–,"N#Cc1ccc(CCNC(=O)[C@@H]2C[C@@H](O)CN2c2cc(N3CCC(CCO)CC3)nc(C(F)(F)F)n2)cc1 [Compound 210, (2S,4R)—N-(4-cyanophenethyl)-4-hydroxy-1-(6-(4-(2-hydroxyethyl)piperidin-1-yl)-2-(trifluoromethyl)pyrimidin-4-yl)pyrrolidine-2-carboxamide]"
< 100 nM,100 to 999 nM,< 100 nM,–,–,"O=C(NCCc1ccc(C(F)(F)F)cc1)[C@@H]1CCCN(c2cc(N3CCC(CO)CC3)nc(C(F)(F)F)n2)C1 [Compound 329, (R)-1-(6-(4-(hydroxymethyl)piperidin-1-yl)-2-(trifluoromethyl)pyrimidin-4-yl)-N-(4-(trifluoromethyl)-phenethyl)piperidine-3-carboxamide]"
< 100 nM,1000 to 30000 nM,< 100 nM,–,–,"N#Cc1ccc(CCNC(=O)[C@@H]2CCCN2c2cc(-c3ccc(CO)cc3)nc(C(F)(F)F)n2)cc1 [Compound 146, (S)-N-(4-cyanophenethyl)-1-(6-(4-(hydroxymethyl)phenyl)-2-(trifluoromethyl)pyrimidin-4-yl)pyrrolidine-2-carboxamide]"
100 to 999 nM,1000 to 30000 nM,< 100 nM,–,–,"N#Cc1ccc(CCNC(=O)[C@@H]2CCCN2c2cc(N3CCC(CN)CC3)nc(C(F)(F)F)n2)cc1 [Compound 47, (S)-1-(6-(4-(aminomethyl)piperidin-1-yl)-2-(trifluoromethyl)pyrimidin-4-yl)-N-(4-cyanophenethyl)pyrrolidine-2-carboxamide]"
100 to 999 nM,–,100 to 999 nM,–,100 to 999 nM,"N#Cc1ccc(CCNC(=O)[C@@H]2CCCN2c2cc(-c3cc4ccccc4s3)nc(C(F)(F)F)n2)cc1 [Compound 173, (S)-1-(6-(benzo[b]thiophen-2-yl)-2-(trifluoromethyl)pyrimidin-4-yl)-N-(4-cyanophenethyl)pyrrolidine-2-carboxamide]"
< 100 nM,100 to 999 nM,< 100 nM,–,–,"O=C(NCCc1ccc(C(F)(F)F)cc1)[C@@H]1CCCN1c1cc(OC2CCOCC2)nc(C(F)(F)F)n1 [Compound 40, (S)-1-(6-((tetrahydro-2H-pyran-4-yl)oxy)-2-(trifluoromethyl)pyrimidin-4-yl)-N-(4-(trifluoromethyl)phenethyl)pyrrolidine-2-carboxamide]"
< 100 nM,100 to 999 nM,100 to 999 nM,–,–,"CS(=O)(=O)c1ccc(-c2cc(N3CCC[C@H]3C(=O)NCCc3ccc(C#N)cc3)nc(C(F)(F)F)n2)cc1 [Compound 152, (S)-N-(4-cyanophenethyl)-1-(6-(4-(methylsulfonyl)phenyl)-2-(trifluoromethyl)pyrimidin-4-yl)pyrrolidine-2-carboxamide]"
< 100 nM,< 100 nM,< 100 nM,–,–,"O=C(NCCc1ccc(C(F)(F)F)cc1)[C@@H]1CCN1c1cc(N2CCC(CO)CC2)nc(C(F)(F)F)n1 [Compound 220, (S)-1-(6-(4-(hydroxymethyl)piperidin-1-yl)-2-(trifluoromethyl)pyrimidin-4-yl)-N-(4-(trifluoromethyl)-phenethyl)azetidine-2-carboxamide]"
100 to 999 nM,–,100 to 999 nM,–,< 100 nM,"Cc1csc(-c2cc(N3CCC[C@H]3C(=O)NCCc3ccc(C#N)cc3)nc(C(F)(F)F)n2)c1 [Compound 171, (S)-N-(4-cyanophenethyl)-1-(6-(4-methylthiophen-2-yl)-2-(trifluoromethyl)pyrimidin-4-yl)pyrrolidine-2-carboxamide]"
100 to 999 nM,–,100 to 999 nM,–,100 to 999 nM,"Cc1ccc(-c2cc(N3CCC[C@H]3C(=O)NCCc3ccc(C#N)cc3)nc(C(F)(F)F)n2)s1 [Compound 170, (S)-N-(4-cyanophenethyl)-1-(6-(5-methylthiophen-2-yl)-2-(trifluoromethyl)pyrimidin-4-yl)pyrrolidine-2-carboxamide]"
< 100 nM,100 to 999 nM,< 100 nM,–,–,"O=C(NCCc1ccc(C(F)(F)F)cc1)[C@@H]1CCCN1c1cc(N2CCC(CO)CC2)nc(C(F)(F)F)n1 [Compound 2, (S)-1-(6-(4-(hydroxymethyl)piperidin-1-yl)-2-(trifluoromethyl)pyrimidin-4-yl)-N-(4-(trifluoromethyl)-phenethyl)pyrrolidine-2-carboxamide]"
< 100 nM,100 to 999 nM,< 100 nM,–,–,"N#Cc1ccc(CCNC(=O)[C@@H]2CCCN2c2cc(OC3CCOCC3)nc(C(F)(F)F)n2)cc1 [Compound 41, (S)-N-(4-cyanophenethyl)-1-(6-((tetrahydro-2H-pyran-4-yl)oxy)-2-(trifluoromethyl)pyrimidin-4-yl)pyrrolidine-2-carboxamide]"
< 100 nM,1000 to 30000 nM,100 to 999 nM,–,–,CN(C)CC1CCN(c2cc(N3CCC[C@H]3C(=O)NCCc3ccc(C#N)cc3)nc(C(F)(F)F)n2)CC1 [Compound 19]
